The record followed here is US8173638B2 (Boehringer Ingelheim International GmbH, priority 2006, dated 2012).

The structures appear in SMILES notation.

T1 sequence (P34972 whole entry): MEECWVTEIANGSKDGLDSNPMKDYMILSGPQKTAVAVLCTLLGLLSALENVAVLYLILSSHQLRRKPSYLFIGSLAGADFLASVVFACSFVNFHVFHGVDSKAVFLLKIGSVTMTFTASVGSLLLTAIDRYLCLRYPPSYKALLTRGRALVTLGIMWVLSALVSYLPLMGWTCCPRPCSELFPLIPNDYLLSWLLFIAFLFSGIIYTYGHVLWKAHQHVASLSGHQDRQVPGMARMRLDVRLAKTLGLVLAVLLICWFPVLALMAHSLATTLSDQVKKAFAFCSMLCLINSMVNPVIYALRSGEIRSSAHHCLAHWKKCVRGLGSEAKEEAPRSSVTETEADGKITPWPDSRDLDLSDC

This assay addresses T1, human CB2R (Homo sapiens, UniProt P34972).
T1 construct: host or cells: CHO cells
Nature of the assay: CB2R mediated modulation of cAMP synthesis. In kind it is cell-based. The following applies: found through the use of the described assays (CB2 agonists); qualitative statement. The essentials: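 CHO cells expressing human CB2R treated with compound 30 min at 37 °C in buffer with 1 mM IBMX, 0.25% BSA and 10 uM forskolin. cAMP measured after lysis by DiscoverX-XS kit.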
With `CC(C)(C)c1cc(NC(=O)N2CCCN(C(=O)C3CCCNC3)CC2)no1` (centres unmarked) [4-(Piperidine-3-carbonyl)-[1,4]diazepane-1-carboxylic acid (5-tert-butyl-isoxazol-3-yl)-amide], the agonistic activity entry was “agonistic activity”. The same measure for `CC(C)(C)c1cc(NC(=O)N2CCCN(C(=O)C3CCNCC3)CC2)no1` [4-(Piperidine-4-carbonyl)-[1,4]diazepane-1-carboxylic acid (5-tert-butyl-isoxazol-3-yl)-amide]: “agonistic activity”; for `CC(C)c1ccc(NC(=O)N2CCCN(C(=O)c3ccccn3)CC2)cc1` [4-(Pyridine-2-carbonyl)-[1,4]diazepane-1-carboxylic acid (4-isopropyl-phenyl)-amide]: “agonistic activity”. The result for `CCC(C)c1ccc(NC(=O)N2CCCN(C(=O)c3ccccn3)CC2)cc1` (centres unmarked) [4-(Pyridine-2-carbonyl)-[1,4]diazepane-1-carboxylic acid (4-sec-butyl-phenyl)-amide] reads “agonistic activity”. The result for `CC(C)c1ccc(NC(=O)N2CCCN(C(=O)c3ccncc3)CC2)cc1` [4-(Pyridine-4-carbonyl)-[1,4]diazepane-1-carboxylic acid (4-isopropyl-phenyl)-amide] reads “agonistic activity”; that for `CC(C)(C)c1cc(NC(=O)N2CCCN(C(=O)C3CCCO3)CC2)no1` (centres unmarked) [4-(Tetrahydro-furan-2-carbonyl)-[1,4]diazepane-1-carboxylic acid (5-tert-butyl-isoxazol-3-yl)-amide], “agonistic activity”. Consider `CC(C)(C)c1cc(NC(=O)N2CCCN(C(=O)C3CCOC3)CC2)no1` (centres unmarked) [4-(Tetrahydro-furan-3-carbonyl)-[1,4]diazepane-1-carboxylic acid (5-tert-butyl-isoxazol-3-yl)-amide], for which the agonistic activity result is “agonistic activity”. The result for `CC(C)(C)c1cc(NC(=O)N2CCCN(C(=O)C3CCCCO3)CC2)no1` (centres unmarked) [4-(Tetrahydro-pyran-2-carbonyl)-[1,4]diazepane-1-carboxylic acid (5-tert-butyl-isoxazol-3-yl)-amide] reads “agonistic activity”. The result for `CC(C)(C)c1cc(NC(=O)N2CCCN(C(=O)C3CCCOC3)CC2)no1` (centres unmarked) [4-(Tetrahydro-pyran-3-carbonyl)-[1,4]diazepane-1-carboxylic acid (5-tert-butyl-isoxazol-3-yl)-amide] reads “agonistic activity”. The result for `Cn1c(NC(=O)N2CCCN(C(=O)C3CCOCC3)CC2)nc2ccccc21` [4-(Tetrahydro-pyran-4-carbonyl)-[1,4]diazepane-1-carboxylic acid (1-methyl-1H-benzoimidazol-2-yl)-amide] reads “agonistic activity”; that for `Cn1nc(-c2ccccc2)cc1NC(=O)N1CCCN(C(=O)C2CCOCC2)CC1` [4-(Tetrahydro-pyran-4-carbonyl)-[1,4]diazepane-1-carboxylic acid (2-methyl-5-phenyl-2H-pyrazol-3-yl)-amide], “agonistic activity”; that for `O=C(Nc1cc(-c2ccccc2)no1)N1CCCN(C(=O)C2CCOCC2)CC1` [4-(Tetrahydro-pyran-4-carbonyl)-[1,4]diazepane-1-carboxylic acid (3-phenyl-isoxazol-5-yl)-amide], “agonistic activity”.

As for `CCC(C)c1cc(NC(=O)N2CCCN(C(=O)C3CCOCC3)CC2)on1` (centres unmarked) [4-(Tetrahydro-pyran-4-carbonyl)-[1,4]diazepane-1-carboxylic acid (3-sec-butyl-isoxazol-5-yl)-amide], the agonistic activity entry was “agonistic activity”. The result for `O=C(Nc1nc2c(s1)CCCC2)N1CCCN(C(=O)C2CCOCC2)CC1` [4-(Tetrahydro-pyran-4-carbonyl)-[1,4]diazepane-1-carboxylic acid (4,5,6,7-tetrahydro-benzothiazol-2-yl)-amide] reads “agonistic activity”; that for `Cc1nc(NC(=O)N2CCCN(C(=O)C3CCOCC3)CC2)sc1C` [4-(Tetrahydro-pyran-4-carbonyl)-[1,4]diazepane-1-carboxylic acid (4,5-dimethyl-thiazol-2-yl)-amide], “agonistic activity”.

For the compound `CCCCc1ccc(NC(=O)N2CCCN(C(=O)C3CCOCC3)CC2)cc1` [4-(Tetrahydro-pyran-4-carbonyl)-[1,4]diazepane-1-carboxylic acid (4-butyl-phenyl)-amide], the agonistic activity result was “agonistic activity”.

Take `CCc1ccnc(NC(=O)N2CCCN(C(=O)C3CCOCC3)CC2)c1` [4-(Tetrahydro-pyran-4-carbonyl)-[1,4]diazepane-1-carboxylic acid (4-ethyl-pyridin-2-yl)-amide]: the agonistic activity result is “agonistic activity”. For the compound `CC(C)c1ccc(NC(=O)N2CCCN(C(=O)C3CCOCC3)CC2)cc1` [4-(Tetrahydro-pyran-4-carbonyl)-[1,4]diazepane-1-carboxylic acid (4-isopropyl-phenyl)-amide], the agonistic activity result was “agonistic activity”. The result for `Cc1csc(NC(=O)N2CCCN(C(=O)C3CCOCC3)CC2)n1` [4-(Tetrahydro-pyran-4-carbonyl)-[1,4]diazepane-1-carboxylic acid (4-methyl-thiazol-2-yl)-amide] reads “agonistic activity”. The same measure for `O=C(Nc1nc(-c2ccccc2)cs1)N1CCCN(C(=O)C2CCOCC2)CC1` [4-(Tetrahydro-pyran-4-carbonyl)-[1,4]diazepane-1-carboxylic acid (4-phenyl-thiazol-2-yl)-amide]: “agonistic activity”; for `CCC(C)c1ccc(NC(=O)N2CCCN(C(=O)C3CCOCC3)CC2)cc1` (centres unmarked) [4-(Tetrahydro-pyran-4-carbonyl)-[1,4]diazepane-1-carboxylic acid (4-sec-butyl-phenyl)-amide]: “agonistic activity”; for `Cc1sc(NC(=O)N2CCCN(C(=O)C3CCOCC3)CC2)nc1C(C)(C)C` [4-(Tetrahydro-pyran-4-carbonyl)-[1,4]diazepane-1-carboxylic acid (4-tert-butyl-5-methyl-thiazol-2-yl)-amide]: “agonistic activity”. The same measure for `CC(C)(C)c1csc(NC(=O)N2CCCN(C(=O)C3CCOCC3)CC2)n1` [4-(Tetrahydro-pyran-4-carbonyl)-[1,4]diazepane-1-carboxylic acid (4-tert-butyl-thiazol-2-yl)-amide]: “agonistic activity”; for `O=C(Nc1ccc(C(F)(F)F)cc1)N1CCCN(C(=O)C2CCOCC2)CC1` [4-(Tetrahydro-pyran-4-carbonyl)-[1,4]diazepane-1-carboxylic acid (4-trifluoromethyl-phenyl)-amide]: “agonistic activity”. As for `O=C(Nc1cc(C(F)(F)F)ccn1)N1CCCN(C(=O)C2CCOCC2)CC1` [4-(Tetrahydro-pyran-4-carbonyl)-[1,4]diazepane-1-carboxylic acid (4-trifluoromethyl-pyridin-2-yl)-amide], the agonistic activity entry is on record as “agonistic activity”.

On to `O=C(Nc1ccc(SC(F)(F)F)cc1)N1CCCN(C(=O)C2CCOCC2)CC1` [4-(Tetrahydro-pyran-4-carbonyl)-[1,4]diazepane-1-carboxylic acid (4-trifluoromethylsulfanyl-phenyl)-amide], for which the agonistic activity result is on record as “agonistic activity”.
